Activity calls are given as the source filed them.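 The calls were made as follows: active = caspase luminescence falls with dose and the half-maximal concentration AC50 from the fitted curve is at or below a set limit; inconclusive = flat fit at 30 to 70% signal loss, or invalid fit; inactive = AC50 above the limit, or signal rises instead.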

Consider 84 compounds from PubChem BioAssay AID463206 (Broad Institute, 2010).

The test system of the test is INS-1E cytokine-induced caspase-3/7, Caspase-Glo luminescence, 48 h. Nature of the test: inhibitors of cytokine-induced caspase-3/7 activity, dose response, orthogonal assay for beta-cell apoptosis protection project, INS-1E rat cells, luminescence (AID 463206).
As for `O=C(CC(O)(C(F)(F)F)C(F)(F)F)Nc1ccc(Cl)c(Cl)c1`, the AC50 is > 26 µM (inactive).

Turning to `COc1ccc(C(=O)N(C)c2ccccc2C(=O)NCCc2ccccc2)cc1`, the AC50 was > 26 µM (inactive). The figure for `CC(=O)NC(c1cccs1)c1cc(F)c2cccnc2c1O` (centres undefined) is > 26 µM (inactive); for `Cc1ccc(-c2c[n+]3c(n2-c2ccccc2)SCC3)cc1` it is > 26 µM (inactive); for `CCn1c(/C=C/c2ccc([N+](=O)[O-])o2)nc2ccccc2c1=O` it is > 26 µM (inactive). Then `Cc1ccc(-c2cc(-c3ccc(C)cc3)[n+](-c3ccc(C(=O)[O-])cc3)c(-c3ccc(C)cc3)c2)cc1`, with > 26 µM (inactive). Then `O=c1cnnc(N/N=C/c2ccccn2)[nH]1`, with > 26 µM (inactive). `CCN(CC)c1ccc(N=Cc2ccc([N+](=O)[O-])o2)cc1`: the AC50 was > 26 µM (inactive). As to `Cc1cc(C)n(CCC(=O)N/N=C/c2c(O)ccc3ccccc23)n1`, the AC50 was > 26 µM (inactive).

With `CCN(CC(=O)Nc1ccc(NC(C)=O)cc1)C(=O)CCCOc1ccc(C(C)(C)C)cc1`, the AC50 is > 26 µM (inactive). Regarding `O=[N+]([O-])c1c(Nc2ccc(O)cc2)cc(Cl)c2nonc12`, the AC50 was > 26 µM (inactive).

Turning to `C#Cc1ccc([C@@H]2C=C(C(=O)N3CCN(Cc4ccccc4)CC3)O[C@H](OCCCCO)C2)cc1`, the AC50 is > 26 µM (inactive). The figure for `Cc1ccc(-c2[nH]ncc2/C=N/n2c(COc3ccccc3C)nc3ccccc3c2=O)cc1` is > 26 µM (inactive); for `Cc1cc(C)nc(SCC(=O)Nc2ccnc3ccccc23)n1` it is > 26 µM (inactive); for `COc1ccc(Nc2nc(N3CCCC3)c3ccccc3n2)cc1` it is 17.1 µM. The figure for `Cc1ccc(Oc2nc(-c3ccccn3)nc3ccccc23)cc1` is > 26 µM (inactive); for `Cc1nnsc1C(=O)N/N=C/c1ccc2ccccc2c1O` it is > 26 µM (inactive); for `C/C(=N\NC(=O)COc1ccccc1-c1ccccc1)c1ccc(O)cc1O` it is > 26 µM (inactive). Then `CCCCc1ccc(N/C(N)=N/c2nc(C)cc(C)n2)cc1`, with > 26 µM (inactive); and `O=C(c1ccco1)c1coc2c1cc(O)c1ccccc12`, with > 26 µM (inactive).

As for `Cc1ccc(C)c(NC(=O)/C(C#N)=C/c2cn(CC(=O)NCc3ccco3)c3ccccc23)c1`, the AC50 is > 26 µM (inactive). Turning to `Nc1nonc1-n1nnc(C(=O)N/N=C/c2ccccc2O)c1CN1CCCC1`, the AC50 is > 26 µM (inactive). Then `O=C(N/N=C/c1c(O)ccc2ccccc12)c1cccnc1`, with > 26 µM (inactive); and `O=C(N/N=C/c1ccccc1O)c1ccc2c(c1)OCO2`, with > 26 µM (inactive). Consider `O=C(NNC(=S)Nc1ccc(Cl)c(Cl)c1)c1ccccn1`, for which the AC50 is > 26 µM (inactive). In the case of `OC(CNC1CCCCC1)COCCOc1ccc(Br)cc1` (centres undefined), the AC50 is > 12 µM (inactive). Take `O=C(C#Cc1ccccc1)c1ccco1`: the AC50 is > 26 µM (inactive). The figure for `Cc1ccc(NC(=O)C2=C(c3ccccc3)S(=O)(=O)CCS2(=O)=O)cc1` is > 26 µM (inactive); for `CCn1c(=O)c(C(=O)Nc2nc3ccccc3[nH]2)c(O)c2ccccc21` it is > 26 µM (inactive). The figure for `COC(=O)C1CCN(C(=O)c2cc(-c3ccc(Cl)s3)nc3ccccc23)CC1` is > 26 µM (inactive); for `CCC1CCCCN1S(=O)(=O)c1ccc(NC(=O)c2nc(S(C)(=O)=O)ncc2Cl)cc1` (centres undefined) it is > 26 µM (inactive); for `COCc1ccc(O)c2ncccc12` it is > 26 µM (inactive). `COc1ccccc1-n1c(-c2ccccc2)c[n+]2c1CCc1ccccc1-2`: the AC50 was > 26 µM (inactive). The figure for `O=C(CSc1nnc(Cn2nnc3ccccc32)o1)N(Cc1ccc(F)cc1)c1ccccc1` is > 26 µM (inactive); for `COc1ccc(-c2nn(-c3ccccc3)cc2C(=O)OCC(=O)c2ccc(C)c([N+](=O)[O-])c2)cc1` it is > 26 µM (inactive); for `O=C1C=C(c2ccc(F)cc2OCc2ccccc2)C[C@@H](c2ccc(Cl)cc2)C1` it is > 26 µM (inactive). The figure for `Oc1ccccc1/C=N/Nc1nccnc1Cl` is > 26 µM (inactive); for `CC(=O)NC(c1ccccc1)c1cc(Cl)c2cccnc2c1O` (centres undefined) it is > 26 µM (inactive). The figure for `COc1ccc(OC)c2c1C(=O)C(Cl)=C(Cl)C2=O` is > 26 µM (inactive).

As to `COc1ccc(/C=C/C(=O)c2ccncc2)c2ccccc12`, the AC50 was > 26 µM (inactive). Then `O=[N+]([O-])c1cc(/C=N/Nc2nc3ccccc3[nH]2)c(O)cc1O`, with > 26 µM (inactive); and `CCN1CCN(Cc2ccc(NC(=O)c3cc(NC(=O)c4cncc(-c5ccc(C#N)cc5)c4)cc(OC)c3)cc2C(F)(F)F)CC1`, with > 26 µM (inactive).

In the case of `C=C1C(O)[C@@H]2O[C@]3(CC[C@H](/C=C/C(C)[C@@H]4CC(C)=CC5(O[C@H](C[C@@](C)(O)CO)CCC5O)O4)O3)CC[C@H]2O[C@@H]1C(O)CC(C)[C@H]1OC2(CCCCO2)CCC1C` (some centres undefined), the concentration at half-maximal activity (AC50) was 3.84 µM.

On to `CC[n+]1ccc(/C=C/c2c[nH]c3ccccc23)cc1`, for which the AC50 is > 26 µM (inactive). In the case of `O=c1c(Cl)c(Cl)cnn1Cc1ccc(F)cc1`, the AC50 is > 26 µM (inactive).

Take `CC1CCC(C(C)C)C(OC(=O)Cn2c(-c3ccc(Br)cc3)[n+](C)c3ccccc32)C1` (centres undefined): the AC50 is > 26 µM (inactive). Then `O=C1/C(=C/c2cccnc2)CCC/C1=C\c1cccnc1`, with > 26 µM (inactive); and `O=C(NCc1nc(-c2ccc(C(F)(F)F)cc2)no1)Nc1cc(Cl)cc(Cl)c1`, with > 26 µM (inactive); and `Cc1ccc(-c2c[n+](Cc3ccc(Cl)cc3)c3n2CCC3)cc1`, with > 26 µM (inactive). As for `O=C(CCCCC(=O)Nc1ccc(F)cc1F)Nc1ccc(F)cc1F`, the AC50 was > 26 µM (inactive).

For `N#Cc1ccc(-c2ccc(Cl)cc2)nc1SCC(=O)c1cccc(Cl)c1`, the AC50 is > 26 µM (inactive).

Turning to `CCCCOCCCNc1ncnc2c1[nH]c1ccccc12`, the AC50 was > 26 µM (inactive). On to `O=C(OCn1ncc(Br)c(Br)c1=O)c1ccc(F)cc1`, for which the AC50 is > 26 µM (inactive). On to `CNc1nc2cc([N+](=O)[O-])c([N+](=O)[O-])cc2nc1NC`, for which the AC50 is > 26 µM (inactive). The figure for `CCOc1ccc(S(=O)(=O)N(C(=O)c2ccco2)c2cc3sc(=O)oc3c3ccccc23)cc1` is > 26 µM (inactive); for `COc1cc(NC(=O)COc2cc(O)c3c(c2)OC(C)(C)CC3=O)cc(OC)c1OC` it is > 26 µM (inactive). The figure for `Cc1ccc(C(C)C)c(OCc2ccc(C(=O)N/N=C/c3ccc(O)cc3O)cc2)c1` is > 26 µM (inactive); for `Cc1cccc(N=Nc2ccc(O)c3ncccc23)c1` it is > 26 µM (inactive); for `CC(=O)/C=C/n1c(=S)oc2ccccc21` it is > 26 µM (inactive). For the compound `CCCCCCc1cc2cc(C(=O)Nc3cccc(OC)c3)c(=O)oc2cc1O`, the AC50 is > 26 µM (inactive). The figure for `Cc1cc2cc(CN3C(=O)c4ccccc4C3=O)ccc2n1C` is > 26 µM (inactive); for `C#CCOCCOCCOCCNc1nc(N2CCN(C(=O)CCCCCCCCCCNC(=O)Cn3cc(C[C@@H](C)O)nn3)CC2)nc(N2CCN(C(=O)CCCCCCCCCCNC(=O)[C@@H]([C@H](C)CC)n3cc(CCCCCN)nn3)CC2)n1` it is > 26 µM (inactive); for `CCCCC(=O)NC(c1ccccc1Cl)c1ccc2cccnc2c1O` (centres undefined) it is > 26 µM (inactive). Then `C=CCc1cccc(/C=N/NC(=O)c2ccccc2OC)c1O`, with > 26 µM (inactive). Then `Cc1cc(C)c(S(=O)(=O)/N=C2\C=C(Nc3ccc(C(=O)O)cc3)C(=O)c3ccccc32)c(C)c1`, with > 26 µM (inactive). For the compound `COc1cccc(/C=N/Nc2nc(Nc3ccccc3)nc(-n3nc(C)cc3C)n2)c1O`, the AC50 was > 26 µM (inactive). The figure for `CCc1ccc2[nH]c(=O)c(C3C(C#N)=C(N)Oc4c3ccc3cccnc43)cc2c1` (centres undefined) is > 26 µM (inactive); for `COc1ccc(NS(=O)(=O)c2ccc(N3CCOCC3)c(N)c2)cc1` it is > 26 µM (inactive). Then `O=[N+]([O-])c1ccc(/C=N/n2cnc3ccccc32)s1`, with > 26 µM (inactive). The figure for `Nc1nc(F)nc2c1ncn2[C@@H]1O[C@H](CO)[C@@H](O)[C@H]1O` is > 26 µM (inactive). Turning to `CCCCCCCC(=O)Nc1ccc(C(=O)N/N=C/c2cccc([N+](=O)[O-])c2)cc1`, the AC50 was > 26 µM (inactive). As to `COc1nc(Nc2nc3ccccc3c(=O)[nH]2)nc2ccc(C)cc12`, the AC50 is > 26 µM (inactive). The figure for `COc1cc(/C=C/C(=O)c2ccc([N+](=O)[O-])o2)ccc1O` is > 26 µM (inactive).

On to `COC(=O)c1c(C)oc2ccc(N(C(=O)c3ccncc3)S(=O)(=O)c3ccc(C)cc3C)cc12`, for which the AC50 is > 26 µM (inactive).

As for `Cc1ccc(-c2sc(-c3ccccc3)nc2CC(=O)Nc2ccccc2F)cc1`, the AC50 was > 26 µM (inactive). Then `CCOC(=O)CS(=O)(=O)c1nc(-c2ccccc2)cc(C(F)(F)F)n1`, with > 26 µM (inactive); and `COc1cccc(/C=N/Nc2ccc([N+](=O)[O-])cn2)c1O`, with > 26 µM (inactive). The figure for `Nc1ccccc1N=Cc1c(O)n(CCC2=CCCCC2)c(=O)[nH]c1=O` is > 26 µM (inactive); for `CC1CN(S(=O)(=O)c2ccc(C(=O)NCCCn3ccnc3)cc2)CC(C)O1` (centres undefined) it is > 26 µM (inactive). Then `Oc1ccccc1/C=N/Nc1ncc(Br)cn1`, with > 26 µM (inactive); and `C=CCc1cccc(/C=N/NC(=O)CCC(=O)Nc2ccc(F)cc2)c1O`, with > 26 µM (inactive); and `CCN1C/C(=C/c2ccc(OC)c(O)c2)C(=O)/C(=C/c2ccc(OC)c(O)c2)C1`, with > 26 µM (inactive). Turning to `CC(=O)N1CCc2cc(S(=O)(=O)NCCC3=CCCCC3)ccc21`, the AC50 was > 12 µM (inactive).

As for `COc1cc(C)c(C(=O)CC(=O)c2c(C)cc(OC)cc2C)c(C)c1`, the AC50 is > 26 µM (inactive).
